In US9512425B2, “Inhibiting migration of cancer cells” (Cornell University, priority 2012, dated 2016):
“Also recorded” adds a separate entry of the source.

Tests used:
MDA-MB-231 (MDA) = assay: Wound healing / transwell migration of MDA cells stably expressing miR-708; type: cell-based, human; settings: MDA cells stably expressing miR-708 (lentiviral) vs controls
From the text: To express miRNA-708 in cells, about 500 bp of pri-miRNA containing the mature miR-708 sequence 5′-[…]-3′ (SEQ ID NO: 2) was amplified and cloned into the pZEO lentiviral construct in fusion with a GFP reporter as described (Ryu et al., 2011). miRNA sponge was generated according to (Ebert et al., 2007). Briefly, the sponge contains twelve miR-708 binding sites, 5′-[…]-3′ (SEQ ID NO: 3) which is fused with GFP and driven by an EF1α promoter. In particular, miRNA-708 was designed and cloned into the Xho I/EcoR I site of the lentiviral vector. To express miRNA-708 inducibly in cells, a doxycycline inducible construct was generated. […]
Cells were plated in triplicate into 6-well plates (5×10^5 cell/well) and cultured in DMEM containing 10% FBS. […] Cell migration was photographed and measured under phase-contrast microscopy. To measure cell migration after depletion of intracellular calcium, a scratch was made and the wound healing was monitored for 48 hr in the presence of 20 μM of BAPTA-AM (Invitrogen). The percentage of wound healed area was measured as a ratio of occupied area to the total area using Image J program (NIH).
For transwell assays, 10,000 cells were plated in triplicate on 8 micron inserts in 24 well plates containing DMEM. […] After staining, images were obtained using a computerized Zeiss microscope (Axiovert 200M) and analyzed using Axiovision 4.6 software (Carl Zeiss Inc.).

MDA-LM2 (LM2) = assay: Orthotopic MDA-LM2 tumor / pulmonary metastasis model; type: in vivo, mice
Method: For orthotopic injection, 1×10^6 viable MDA-MB-231, MDA-Cont, or MDA-miR-708 cells were injected into CB-17 SCID mice fat pads in a volume of 0.1 ml. Tumor growth and pulmonary metastases (following resection of primary tumor) were monitored by live animal bioluminescent imaging (Xenogen IVIS system) once per week.
Mice inoculated with firefly luciferase were anaesthetized and injected retro-orbitally with 75 mg/kg of D-luciferin (30 mg/mL in PBS). Images were taken with mice in a supine position using the Xenogen IVIS system coupled to Living Image acquisition and analysis software (Xenogen). For bioluminescence (BLI) plots, photon flux was calculated for each mouse by using a rectangular region of interest encompassing the thorax of the mouse.
Paraffin embedded sections (5 μm) were deparaffinized following standard protocols. […] Images were obtained with an Axiovert 40 CFL microscope coupled with Axioversion 4.8.2 software (Carl Zeiss). For nodule counting, lungs were perfused, isolated and OCT embedded and sectioned for immunohistochemical analysis. Cryosections (8 μm) were mounted on glass slides and stained with hematoxylin and eosin (H&E).
To measure number of CTC in blood, 100 μl of peripheral blood was collected from mice bearing orthotopic […] expressing MDA and MDA-mir-708 breast tumors. Total RNA was isolated and subjected to Taqman Q-PCR for GFP transgene. To convert quantitative-PCR data into number of CTCs, a standard curve was generated by serially diluting GFP+MDA tumor spiked into […] of normal wild type mouse blood.

Nnat 3'-UTR = assay: 3'-UTR dual luciferase assay; type: cell-based, human
Method: The 3′-UTR of a gene of interest was amplified by PCR and cloned into a pmirGLO Dual-Luciferase miRNA Target Expression Vector (Promega). To express miRNA, synthetic premiRNA precursor for miR-708 and control scrambled miRNA were purchased from Applied Biosystems (Ambion). The miRNA precursor and pmirGLO Dual-Luciferase 3′-UTR vector were co-transfected into […] cells using the siPORT NeoFX Transfection Agent following manufacturer's instructions (Ambion). Cells were harvested and lysed at 48 hr post-transfection. The interaction between miR-708 and target 3′-UTR was measured by Dual-luciferase assay system (Promega).

Akt2 = Akt2 suppression in breast cancer cells (data not shown); type: cell-based
cortical actin = assay: Immunostaining for vinculin and F-actin (phalloidin); type: cell-based, human; settings: MDA-miR-708 cells
Method: For immunofluorescence staining, cells were fixed overnight in paraformaldehyde before incubation with primary antibodies; mouse-monoclonal VINCULIN (Cat#V9131, Sigma-Aldrich, 1:400) and rabbit-polyclonal phosphorylated FAK (pS910, Cat #44596G, Invitrogen, 1:1000). Alexa Flour 568 or Alexa Fluor 647 anti-mouse IgG, and Alexa Fluor 647 anti-rabbit IgG (Invitrogen), were used for visualization. Following incubation with secondary antibodies the tissue sections were treated with Rhodamine Phalloidin (Cat# R415, Invitrogen). Fluorescent images were obtained using a computerized Zeiss fluorescent microscope (Axiovert 200M), fitted with an apotome and an HRM camera. Images were analyzed using Axiovision 4.6 software (Carl Zeiss Inc.).

miR-708: microRNA, mature sequence 5'-AAGGAGCUUACAAUCUAGCUGGG-3' (SEQ ID NO: 2); expressed from lentiviral vector or used as synthetic precursor
migration rates (MDA-MB-231 (MDA)): suppressed migration rates
primary tumor growth (MDA-LM2 (LM2); LM2 cells over-expressing miR-708, day 60): remained unperturbed
lung metastases (photon flux) (MDA-LM2 (LM2); LM2 cells over-expressing miR-708, day 67): significantly lower photon flux; also recorded: pronounced reduction
number of lung metastatic nodules (MDA-LM2 (LM2); MDA-LM2-miR-708 vs controls, H&E sections): reduced numbers
number of circulating tumor cells (CTCs) (MDA-LM2 (LM2); peripheral blood of MDA-LM2-miR-708 tumor bearing mice vs controls): reduced number
primary tumor size measurements (MDA-LM2 (LM2); weight over time, FIG. 7H): unaffected
repression of 3'-UTR luciferase reporter (Nnat 3'-UTR; 293T cells, Renilla/Firefly ratio): significant repression
repression of wild type UTR (Nnat-UTR) reporter (Nnat 3'-UTR; synthetic miR-708 vs scrambled miRNA, intact UTR): effectively suppressed
repression of mutant UTR (Nnat-UTR-mut) reporter (Nnat 3'-UTR; synthetic miR-708 vs scrambled miRNA, mutated binding site): refractory to suppression
Akt2 suppression (Akt2): not suppressed
cortical actin phenotype (cortical actin): thick bands of cortical actin rings
